According to the supplement of paper PMC10307832:

compound: C=CCn1c(=O)c2cnc(Nc3ccc(N4CCN(C)CC4)cc3)nc2n1-c1cccc(C(C)(C)O)n1 [Adavosertib] + CS(=O)(=O)N1CCN(Cc2cc3nc(-c4cccc5[nH]ncc45)nc(N4CCOCC4)c3s2)CC1 [Pictilisib] (partner 1 µM); test: relative viability (nuclei count vs DMSO), 5 days (fraction); higher = more cells survive; details: first compound 0.3162 µM
How it was run: (§1)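 Relative viability equals treated-well nuclei counts divided by vehicle-well nuclei counts. Counts came from 4× images of lung cancer cell lines grown in 1536-well plates for 5 days after pin-tool dosing on the day after seeding. Dosing used one drug alone or a fixed anchor-drug dose plus five library-drug doses (not always all listed) in √10 steps, and values are medians of duplicate plates.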

Point of comparison: NCI-H441, relative viability 0.33. Against it:
- LU99A — lower, 0.241
- LXF-289 — higher, 0.788
- NCI-H23 — lower, 0.236
- NCI-H322M — higher, 0.421
- NCI-H358 — lower, 0.285
- NCI-H460 — higher, 0.417

compound: COc1nc(N)nc2c1ncn2[C@@H]1O[C@H](CO)[C@@H](O)[C@@H]1O [Nelarabine] + CS(=O)(=O)CCNCc1ccc(-c2ccc3ncnc(Nc4ccc(OCc5cccc(F)c5)c(Cl)c4)c3c2)o1 [Lapatinib] (partner 2 µM); test: as above; details: first compound 0.01 µM
How it was run: as §1

Point of comparison: HCC-15, relative viability 0.987. Against it:
- 201T — higher, 1.05
- A549 — higher, 1.13
- A-427 — higher, 1.15
- ABC-1 — higher, 1.44
- BEN — lower, 0.905
- CAL-12T — lower, 0.699
- COR-L23 — higher, 1.39
- COR-L 105 — lower, 0.362
- Calu-6 — higher, 1.29
- EBC-1 — lower, 0.177
- EKVX — lower, 0.2
- EPLC-272H — higher, 1.12
- H3255 — lower, 0.248
- HARA — lower, 0.971
- HCC-44 — higher, 1.08
- HCC-78 — lower, 0.731
- HCC-366 — higher, 1.46
- HCC-827 — lower, 0.196
- HOP-62 — higher, 1.35
- IA-LM — higher, 1.01
- LC-2-ad — higher, 1.28
- LCLC-97TM1 — lower, 0.854
- LK-2 — higher, 1.23
- LOU-NH91 — lower, 0.817
- LU99A — higher, 1.15
- LXF-289 — lower, 0.97
- NCI-H23 — higher, 1.5
- NCI-H322M — lower, 0.653
- NCI-H358 — lower, 0.518

same assay, conditions: first compound 0.03162 µM

Point of comparison: HARA, relative viability 0.666. Against it:
- 201T — higher, 1.02
- A549 — higher, 1.09
- A-427 — higher, 0.973
- ABC-1 — higher, 0.952
- BEN — higher, 0.69
- CAL-12T — higher, 0.743
- COR-L23 — higher, 1.17
- COR-L 105 — lower, 0.306
- Calu-6 — higher, 1.04
- EBC-1 — lower, 0.205
- EKVX — lower, 0.155
- EPLC-272H — higher, 0.798
- H3255 — lower, 0.267
- HCC-15 — higher, 0.798
- HCC-44 — higher, 1.07
- HCC-78 — higher, 0.779
- HCC-366 — higher, 0.952
- HCC-827 — lower, 0.205
- HOP-62 — higher, 1.08
- IA-LM — higher, 0.74
- LC-2-ad — higher, 1.03
- LCLC-97TM1 — higher, 0.778
- LOU-NH91 — lower, 0.633
- LU99A — higher, 1.04
- LXF-289 — higher, 0.883
- NCI-H23 — higher, 1.1
- NCI-H322M — lower, 0.581
- NCI-H358 — lower, 0.436
- NCI-H460 — higher, 1.76

same assay, conditions: first compound 0.1 µM

Point of comparison: COR-L23, relative viability 1.12. Against it:
- 201T — lower, 0.999
- A549 — lower, 0.926
- A-427 — higher, 1.14
- ABC-1 — higher, 1.23
- BEN — lower, 0.941
- CAL-12T — lower, 0.611
- COR-L 105 — lower, 0.374
- Calu-6 — lower, 1.08
- EBC-1 — lower, 0.188
- EKVX — lower, 0.168
- EPLC-272H — lower, 0.976
- H3255 — lower, 0.226
- HARA — lower, 0.719
- HCC-15 — lower, 0.928
- HCC-44 — higher, 1.14
- HCC-366 — higher, 1.23
- HCC-827 — lower, 0.169
- HOP-62 — higher, 1.18
- IA-LM — lower, 0.829
- LC-2-ad — lower, 0.991
- LCLC-97TM1 — lower, 0.667
- LK-2 — lower, 1.03
- LOU-NH91 — lower, 0.692
- LU99A — higher, 1.19
- LXF-289 — lower, 0.884
- NCI-H23 — lower, 1.06
- NCI-H322M — lower, 0.529
- NCI-H358 — lower, 0.421
- NCI-H460 — higher, 1.84

same assay, conditions: first compound 0.3162 µM

Point of comparison: COR-L 105, relative viability 0.285. Against it:
- 201T — higher, 1.09
- A549 — higher, 0.896
- A-427 — higher, 1.1
- ABC-1 — higher, 1.1
- BEN — higher, 0.684
- CAL-12T — higher, 0.685
- COR-L23 — higher, 1.02
- Calu-6 — higher, 1.18
- EBC-1 — lower, 0.215
- EKVX — lower, 0.204
- EPLC-272H — higher, 1.02
- H3255 — lower, 0.235
- HARA — higher, 0.808
- HCC-15 — higher, 0.883
- HCC-44 — higher, 1.03
- HCC-78 — higher, 0.902
- HCC-366 — higher, 1.2
- HCC-827 — lower, 0.179
- HOP-62 — higher, 1.11
- IA-LM — higher, 0.9
- LC-2-ad — higher, 1.06
- LCLC-97TM1 — higher, 0.818
- LK-2 — higher, 1.02
- LOU-NH91 — higher, 0.775
- LU99A — higher, 1.12
- LXF-289 — higher, 0.941
- NCI-H23 — higher, 1.17
- NCI-H322M — higher, 0.604
- NCI-H358 — higher, 0.405
- NCI-H460 — higher, 1.62

same assay, conditions: first compound 1 µM

Point of comparison: HCC-78, relative viability 0.631. Against it:
- 201T — higher, 1.1
- A549 — higher, 0.921
- A-427 — higher, 1.11
- ABC-1 — higher, 1.37
- BEN — higher, 0.778
- CAL-12T — higher, 0.688
- COR-L23 — higher, 0.982
- COR-L 105 — lower, 0.368
- Calu-6 — higher, 1.14
- EBC-1 — lower, 0.197
- EKVX — lower, 0.21
- EPLC-272H — higher, 0.86
- H3255 — lower, 0.201
- HARA — higher, 0.767
- HCC-15 — higher, 0.9
- HCC-44 — higher, 1.02
- HCC-366 — higher, 1.17
- HCC-827 — lower, 0.194
- HOP-62 — higher, 1
- IA-LM — higher, 0.932
- LC-2-ad — higher, 1.08
- LCLC-97TM1 — higher, 1.14
- LK-2 — higher, 1.05
- LOU-NH91 — higher, 0.788
- LU99A — higher, 1.1
- LXF-289 — higher, 0.903
- NCI-H23 — higher, 1.18
- NCI-H322M — lower, 0.602
- NCI-H358 — lower, 0.431
- NCI-H460 — higher, 1.27
